From PubChem BioAssay AID1259407 (Chemical Carcinogenesis Research Information System (CCRIS), 2018)
Activity calls are given as the source filed them. How the calls were made is not given here.

Tested on: CCRIS mutagenicity, Ames/micronucleus/aberration tests
Experiment: CCRIS mutagenicity studies
[1] = Test System: AMES SALMONELLA TYPHIMURIUM, Strain/Indicator: TA98, Metabolic Activation: NONE, Method: PREINCUBATION
[2] = Test System: AMES SALMONELLA TYPHIMURIUM, Strain/Indicator: TA98, Metabolic Activation: NONE, Method: STANDARD PLATE
[3] = Test System: AMES SALMONELLA TYPHIMURIUM, Strain/Indicator: TA100, Metabolic Activation: NONE, Method: STANDARD PLATE
[4] = Test System: AMES SALMONELLA TYPHIMURIUM, Strain/Indicator: TA98, Metabolic Activation: RAT, LIVER, S-9, AROCLOR 1254, Method: STANDARD PLATE
[5] = Test System: AMES SALMONELLA TYPHIMURIUM, Strain/Indicator: TA100, Metabolic Activation: RAT, LIVER, S-9, AROCLOR 1254, Method: STANDARD PLATE

CNC(=O)CN(CCN(CCN(CC(=O)O)CC(=O)NC)CC(=O)O)CC(=O)O
mutagenic call (Test System: AMES SALMONELLA TYPHIMURIUM, Strain/Indicator: TA98, Metabolic Activation: NONE): inactive; negative
mutagenic call (Test System: AMES SALMONELLA TYPHIMURIUM, Strain/Indicator: TA98, Metabolic Activation: RAT, LIVER, S-9, AROCLOR 1254): inactive; negative
mutagenic call (Test System: AMES SALMONELLA TYPHIMURIUM, Strain/Indicator: TA100, Metabolic Activation: NONE): inactive; negative
mutagenic call (Test System: AMES SALMONELLA TYPHIMURIUM, Strain/Indicator: TA100, Metabolic Activation: RAT, LIVER, S-9, AROCLOR 1254): inactive; negative
mutagenic call (Test System: AMES SALMONELLA TYPHIMURIUM, Strain/Indicator: TA1535, Metabolic Activation: NONE): inactive; negative
mutagenic call (Test System: AMES SALMONELLA TYPHIMURIUM, Strain/Indicator: TA1535, Metabolic Activation: RAT, LIVER, S-9, AROCLOR 1254): inactive; negative
mutagenic call (Test System: AMES SALMONELLA TYPHIMURIUM, Strain/Indicator: TA1537, Metabolic Activation: NONE): inactive; negative
mutagenic call (Test System: AMES SALMONELLA TYPHIMURIUM, Strain/Indicator: TA1537, Metabolic Activation: RAT, LIVER, S-9, AROCLOR 1254): inactive; negative
mutagenic call (Test System: CHINESE HAMSTER OVARY, Strain/Indicator: CHO-K1-BH4 (HGPRT)/6-THIOGUANINE, Metabolic Activation: NONE): inactive; negative
mutagenic call (Test System: CHINESE HAMSTER OVARY, Strain/Indicator: CHO-K1-BH4 (HGPRT)/6-THIOGUANINE, Metabolic Activation: RAT, LIVER, S-9, AROCLOR 1254): inactive; negative
mutagenic call (Test System: E.COLI, Strain/Indicator: WP2 UVRA, Metabolic Activation: NONE): inactive; negative
mutagenic call (Test System: E.COLI, Strain/Indicator: WP2 UVRA, Metabolic Activation: RAT, LIVER, S-9, AROCLOR 1254): inactive; negative

O=[N+]([O-])c1ccc(Cl)c([N+](=O)[O-])c1
mutagenic call (Test System: AMES SALMONELLA TYPHIMURIUM, Strain/Indicator: TA98(1,8-DNP6), Metabolic Activation: NONE, Method: PREINCUBATION): active; positive
mutagenic call (Test System: AMES SALMONELLA TYPHIMURIUM, Strain/Indicator: TA98(NR), Metabolic Activation: NONE, Method: PREINCUBATION): active; positive
mutagenic call [1]: active; positive
mutagenic call [2]: active; positive
mutagenic call (Test System: AMES SALMONELLA TYPHIMURIUM, Strain/Indicator: TA98, Metabolic Activation: RAT LIVER S-9, AROCLOR 1254 (10%), Method: STANDARD PLATE): active; positive
mutagenic call (Test System: AMES SALMONELLA TYPHIMURIUM, Strain/Indicator: TA98, Metabolic Activation: RAT, LIVER, S-9, KANECHLOR 500, Method: PREINCUBATION): active; positive
mutagenic call (Test System: AMES SALMONELLA TYPHIMURIUM, Strain/Indicator: TA98NR/1,8-DNP6, Metabolic Activation: NONE, Method: STANDARD PLATE): inactive; negative
mutagenic call (Test System: AMES SALMONELLA TYPHIMURIUM, Strain/Indicator: TA98NR, Metabolic Activation: NONE, Method: STANDARD PLATE): active; positive
mutagenic call (Test System: AMES SALMONELLA TYPHIMURIUM, Strain/Indicator: TA100(NR), Metabolic Activation: NONE, Method: PREINCUBATION): active; positive
mutagenic call (Test System: AMES SALMONELLA TYPHIMURIUM, Strain/Indicator: TA100/GSH-, Metabolic Activation: NONE, Method: PREINCUBATION): active; positive
mutagenic call (Test System: AMES SALMONELLA TYPHIMURIUM, Strain/Indicator: TA100, Metabolic Activation: NONE, Method: PREINCUBATION): active; positive
mutagenic call [3]: active; positive
mutagenic call (Test System: AMES SALMONELLA TYPHIMURIUM, Strain/Indicator: TA100, Metabolic Activation: RAT, LIVER, S-9, KANECHLOR 500, Method: PREINCUBATION): inactive; negative
mutagenic call (Test System: AMES SALMONELLA TYPHIMURIUM, Strain/Indicator: YG1021, Metabolic Activation: NONE, Method: STANDARD PLATE): active; positive
mutagenic call (Test System: AMES SALMONELLA TYPHIMURIUM, Strain/Indicator: YG1024, Metabolic Activation: NONE, Method: STANDARD PLATE): active; positive
mutagenic call (Test System: Ames Salmonella typhimurium, Strain/Indicator: TA98, Metabolic Activation: None, Method: Preincubation): active; positive
mutagenic call (Test System: Ames Salmonella typhimurium, Strain/Indicator: TA98, Metabolic Activation: Rat, Liver, S9, Sodium phenobarbital and 5,6-benzoflavone (10%), Method: Preincubation): active; positive
mutagenic call (Test System: Ames Salmonella typhimurium, Strain/Indicator: TA100, Metabolic Activation: None, Method: Preincubation): active; positive
mutagenic call (Test System: Ames Salmonella typhimurium, Strain/Indicator: TA100, Metabolic Activation: Rat, Liver, S9, Sodium phenobarbital and 5,6-benzoflavone (10%), Method: Preincubation): active; positive
mutagenic call (Test System: Ames Salmonella typhimurium, Strain/Indicator: TA1535, Metabolic Activation: None, Method: Preincubation): active; positive
mutagenic call (Test System: Ames Salmonella typhimurium, Strain/Indicator: TA1535, Metabolic Activation: Rat, Liver, S9, Sodium phenobarbital and 5,6-benzoflavone (10%), Method: Preincubation): active; positive
mutagenic call (Test System: Ames Salmonella typhimurium, Strain/Indicator: TA1537, Metabolic Activation: Rat, Liver, S9, Sodium phenobarbital and 5,6-benzoflavone (10%), Method: Preincubation): active; positive

Cc1c2ccccc2c(COS(=O)(=O)O)c2ccccc12
mutagenic call [1]: active; positive

Cc1nc2ccc3c(nc(N)n3C)c2nc1C
mutagenic call [4]: active; positive

O=C(CC(O)(CC(=O)OCCBr)C(=O)OCCBr)OCCBr
mutagenic call [3]: inactive; negative
mutagenic call [5]: active; positive

Nc1ncnc2c1ncn2C(c1ccccc1)c1ccccc1
mutagenic call (Test System: AMES SALMONELLA TYPHIMURIUM, Strain/Indicator: TA97, Metabolic Activation: NONE, Method: STANDARD PLATE): inactive; negative
mutagenic call (Test System: AMES SALMONELLA TYPHIMURIUM, Strain/Indicator: TA97, Metabolic Activation: RAT, LIVER, S-9, AROCLOR 1254, Method: STANDARD PLATE): inactive; negative
mutagenic call [2]: inactive; negative
mutagenic call [4]: active; positive
mutagenic call [3]: inactive; negative
mutagenic call [5]: inactive; negative

CCn1c(N)nc2c3nc(C)cnc3ccc21
mutagenic call (Test System: AMES SALMONELLA TYPHIMURIUM, Strain/Indicator: TA98, Metabolic Activation: RAT, LIVER, S-9, AROCLOR 1254, Method: PREINCUBATION): active; positive

C/C=C1\C[C@@H](C)[C@](C)(O)C(=O)OC[C@H]2CCN3CC[C@@H](OC1=O)C23 (some centres undefined)
mutagenic call (Test System: UDS RAT HEPATOCYTES, Strain/Indicator: THY INCORP, Metabolic Activation: NONE, Method: AUTORADIOGRAPHY): inactive; negative

CN(OC(=O)c1ccccc1)c1ccc(N=Nc2ccccc2)cc1
mutagenic call (Test System: AMES SALMONELLA TYPHIMURIUM, Strain/Indicator: TA98, Metabolic Activation: RAT, LIVER, S-9, KC500 OR PHENOBARBITAL, Method: LIQUID SUSPENSION): active; positive
mutagenic call (Test System: AMES SALMONELLA TYPHIMURIUM, Strain/Indicator: TA100, Metabolic Activation: RAT, LIVER, S-9, KC500 OR PHENOBARBITAL, Method: LIQUID SUSPENSION): active; positive

C=C(CC(=O)OCC)C(=O)O
mutagenic call (Test System: Chinese Hamster ovary (CHO) cells, Metabolic Activation: None, Method: HGPRT/6-Thioguanine): inactive; negative

COc1cc(OC)nc(NC(=O)NS(=O)(=O)c2ncccc2C(=O)N(C)C)n1
mutagenic call (Test System: Chinese hamster lung cells, Strain/Indicator: V79 (HPRT)/6-Thioguanine, Metabolic Activation: None, Method: Standard plate?): inactive; negative
mutagenic call (Test System: Chinese hamster lung cells, Strain/Indicator: V79 (HPRT)/6-Thioguanine, Metabolic Activation: S-9, Method: Standard plate?): inactive; negative
mutagenic call (Test System: TA97, Metabolic Activation: None, Method: Preincubation?): inactive; negative
mutagenic call (Test System: TA97, Metabolic Activation: S-9, Method: Preincubation?): inactive; negative
mutagenic call (Test System: TA98, Metabolic Activation: None, Method: Preincubation?): inactive; negative
mutagenic call (Test System: TA98, Metabolic Activation: S-9, Method: Preincubation?): inactive; negative
mutagenic call (Test System: TA100, Metabolic Activation: None, Method: Preincubation?): inactive; negative
mutagenic call (Test System: TA100, Metabolic Activation: S-9, Method: Preincubation?): inactive; negative
mutagenic call (Test System: TA102, Metabolic Activation: None, Method: Preincubation?): inactive; negative
mutagenic call (Test System: TA102, Metabolic Activation: S-9, Method: Preincubation?): inactive; negative
